Experimental data: patent US20220356174A1, “PYRIDIN-2-ONE COMPOUNDS USEFUL AS SMARCA2 ANTAGONISTS” (Epizyme, Inc., priority 2018, published 2022)
Like-named read-outs stand apart in the source and are kept apart here.

Key:
[1] = test system: H358 cells; test: High-throughput proliferation (HTP) assay for H358 cells (CellTiter-Glo, 7 days); format: cell-based; conditions: Homo sapiens, NCI-H358, 168 h, read-out: H358 SMARCA2 IC50
Protocol: Thawing vials: H358 cells (ATCC #CRL-5807™) were thawed from a cryovial containing approximately 1.6×10^6 cells frozen in 70% RPMI 1640 medium, 20% HI-FBS and 10% DMSO. Cells were thawed by submerging the bottom half of the vial in a 37° C. water bath and gently flicked until almost thawed. The cells were removed and transferred into a 15 mL conical tube containing 9 mL RPMI 1640 medium+10% HI-FBS and then centrifuged 200×g for 4 min before drawing off the media without disturbing the cell pellet to remove the DMSO. The cells were resuspended again in 15 mL of RPMI 1640 fresh complete media+10% HI-FBS and grown up in a T75 flask at 37° C. with 5% CO2 Incubator. Viability was measured to obtain baseline.
Preparing frozen stock vials: Cell density was counted in a stock flask. The culture was transferred to a 50 mL conical tube and spun down to remove medium, and then resuspend at 1-2×10^6 cells/mL in complete medium containing 10% DMSO and transferred to a 1 mL per vial.
(§1) Routine subculture: Sub-confluent cultures (70-80%) were split every 4 days, seeding out at 1-2×10^6 cells/75 cm^2.
Day 0: Assay ready plates were prepared by dispensing 50 nL of compound stock or DMSO in the appropriate wells of 384-well white CulturPlates using Echo550. Using the Multiflo, H358 cells at 50 μL/well were plated in RPMI 1640 complete media+10% HI-FBS+1% pen/strep at cell density determined [20,000 cells/mL (1,000 cells/well)] from growth curve. Treated cells were inclubated at 37° C., 5% CO2, relative humidity >90% for 7 days. CellTiter-Glo (CTG) ATP detection reagent was prepared according to manufacturer's specifications. Cell assay plates were removed from incubator and bring to room temperature (RT).
Using the MultiDrop liquid handler, 30 μL of CTG were added per well. Plates were placed on the multidrop dispenser shake for 5 seconds at RT. Plates were incubated for 30 minutes in the dark at RT before measuring luminescence using the Envison2104.
Data analysis: Using the DMSO control wells as the 0% inhibition (high signal) control and the 10 uM Doxorubicin control wells as the 100% inhibition (low signal) control, percent inhibition EC50s (inflection point) and IC50s were calculated for the compound dose responses.

[2] = test system: A549 cells; test: High-throughput proliferation (HTP) assay for A549 cells (CellTiter-Glo, 7 days); format: cell-based; conditions: Homo sapiens, 168 h, read-out: A549 SMARCA2 IC50
Protocol: Thawing vials: A549 cells (ATCC #CCL-185™) were thawed from a cryovial containing approximately 1.6×10^6 cells frozen in 70% F12K medium, 20% HI-FBS and 10% DMSO. Cells were thawed by submerging the bottom half of the vial in a 37° C. water bath and gently flicked until almost thawed. The cells were transferred into a 15 mL conical tube containing 9 mL of F12K medium+10% HI-FBS and then centrifuged at 200×g for 4 min before drawing off the media without disturbing the cell pellet in order to remove the DMSO. The cells were resuspended again in 15 mL of F12K fresh complete media+10% HI-FBS and grown up in a T75 flask at 37° C. with 5% CO2 Incubator. Viability was measured to obtain baseline.
Frozen stock vials preparation: The cell culture was transferred to a 50 mL conical tube, spun down to remove medium, and resuspended at 1-2×10^6 cells/mL in complete medium containing 10% DMSO. The culture was then stored for 24 hours at −80 degree C., (with the initial rate of freezing is −1 degree C. per minute in a freezing container), then transferred and stored in liquid nitrogen.
as §1
Day 0: Assay ready plates were prepared by dispensing 50 nL of compound or DMSO in the appropriate wells of 384-well white CulturPlates using Echo550. Using the Multiflo, A549 cells were plated at 50 μL/well in F12K complete media+10% HI-FBS+1% pen/strep at cell density determined [1,250 cells/mL (62.5 cells/well)] from growth curve.
Treated cells were incubated at 37° C., 5% CO2, relative humidity >90% for 7 days. CellTiter-Glo (CTG) ATP detection reagent was prepared according to manufacturer's specifications. Cell assay plates were removed from the incubator and brought to room temperature (RT). Using the MultiDrop liquid handler, 30 μL of CTG were added per well. Plates were placed on the multidrop dispenser shake for 5 seconds at room temperature (RT). Plates were incubated for 30 minutes in the dark at RT before measuring luminescence using the Envison2104.
Data analysis: Using the DMSO control wells as the 0% inhibition (high signal) control and the 10 μM Doxorubicin control wells as the 100% inhibition (low signal) control, percent inhibition EC50s (inflection point) and IC50 s were calculated for the compound dose responses.

[3] = target: FL-SMARCA4 (Homo sapiens, UniProt P51532); test: SMARCA4 ATPase activity assay (ADP-Glo, chicken mononucleosome substrate)
Sequence of FL-SMARCA4 (P51532 whole entry, canonical isoform): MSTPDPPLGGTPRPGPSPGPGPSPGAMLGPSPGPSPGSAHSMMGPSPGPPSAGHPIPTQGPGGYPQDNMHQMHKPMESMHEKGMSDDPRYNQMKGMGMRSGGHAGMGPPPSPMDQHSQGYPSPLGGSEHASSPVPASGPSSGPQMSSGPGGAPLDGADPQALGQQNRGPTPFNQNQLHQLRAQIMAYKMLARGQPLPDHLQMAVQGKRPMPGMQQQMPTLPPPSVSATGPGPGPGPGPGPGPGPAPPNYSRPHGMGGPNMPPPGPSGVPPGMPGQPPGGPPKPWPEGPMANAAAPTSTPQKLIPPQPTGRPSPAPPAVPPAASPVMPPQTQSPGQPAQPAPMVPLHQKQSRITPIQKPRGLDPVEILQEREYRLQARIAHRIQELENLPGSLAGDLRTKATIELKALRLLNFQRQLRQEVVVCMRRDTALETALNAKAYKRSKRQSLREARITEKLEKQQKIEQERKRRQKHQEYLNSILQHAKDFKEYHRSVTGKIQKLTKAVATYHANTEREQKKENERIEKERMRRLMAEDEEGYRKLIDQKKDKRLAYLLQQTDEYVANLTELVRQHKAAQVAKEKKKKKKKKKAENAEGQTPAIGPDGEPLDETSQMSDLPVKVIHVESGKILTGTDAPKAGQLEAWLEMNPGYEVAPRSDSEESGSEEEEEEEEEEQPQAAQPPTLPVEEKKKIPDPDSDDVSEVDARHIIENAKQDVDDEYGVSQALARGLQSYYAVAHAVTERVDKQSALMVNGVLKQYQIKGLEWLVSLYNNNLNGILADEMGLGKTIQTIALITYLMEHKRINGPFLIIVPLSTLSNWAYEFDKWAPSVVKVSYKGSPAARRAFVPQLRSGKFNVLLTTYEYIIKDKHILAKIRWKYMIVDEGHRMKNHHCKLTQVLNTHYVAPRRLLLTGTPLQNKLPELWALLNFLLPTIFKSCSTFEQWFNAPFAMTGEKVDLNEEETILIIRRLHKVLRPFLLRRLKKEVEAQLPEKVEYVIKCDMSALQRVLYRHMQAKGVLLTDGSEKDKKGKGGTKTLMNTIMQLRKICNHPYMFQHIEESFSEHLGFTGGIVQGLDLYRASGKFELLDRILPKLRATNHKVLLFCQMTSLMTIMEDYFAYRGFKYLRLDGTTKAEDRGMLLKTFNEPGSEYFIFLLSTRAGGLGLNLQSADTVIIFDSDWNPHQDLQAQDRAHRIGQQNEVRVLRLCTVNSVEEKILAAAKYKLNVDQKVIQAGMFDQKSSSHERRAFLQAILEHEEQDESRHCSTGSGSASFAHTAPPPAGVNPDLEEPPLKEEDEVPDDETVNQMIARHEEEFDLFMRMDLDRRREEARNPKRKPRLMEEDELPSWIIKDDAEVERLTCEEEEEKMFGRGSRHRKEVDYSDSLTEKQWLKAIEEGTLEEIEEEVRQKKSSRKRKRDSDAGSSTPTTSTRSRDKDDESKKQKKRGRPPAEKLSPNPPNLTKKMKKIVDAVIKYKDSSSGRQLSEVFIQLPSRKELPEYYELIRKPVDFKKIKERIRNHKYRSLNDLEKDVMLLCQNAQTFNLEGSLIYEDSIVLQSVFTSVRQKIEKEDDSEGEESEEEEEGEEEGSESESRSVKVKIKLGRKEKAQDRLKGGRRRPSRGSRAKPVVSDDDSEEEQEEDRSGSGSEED

[4] = target: T1, FL-SMARCA2 (full-length human SMARCA2 isoform 1) (Homo sapiens, UniProt P51531); test: SMARCA2 ATPase activity assay (ADP-Glo, chicken mononucleosome substrate); format: biochemical; conditions: ATPase assay, enzyme 5 nM, ATP 250 uM, chicken mononucleosome 10 nM, 30 min preincubation
T1 construct: FLAG tag (YKDDDDK) (C); made in house; host or cells: Sf21 insect cells (baculovirus, pFastBacI)
T1 sequence (P51531 with tags, fused parts or gaps): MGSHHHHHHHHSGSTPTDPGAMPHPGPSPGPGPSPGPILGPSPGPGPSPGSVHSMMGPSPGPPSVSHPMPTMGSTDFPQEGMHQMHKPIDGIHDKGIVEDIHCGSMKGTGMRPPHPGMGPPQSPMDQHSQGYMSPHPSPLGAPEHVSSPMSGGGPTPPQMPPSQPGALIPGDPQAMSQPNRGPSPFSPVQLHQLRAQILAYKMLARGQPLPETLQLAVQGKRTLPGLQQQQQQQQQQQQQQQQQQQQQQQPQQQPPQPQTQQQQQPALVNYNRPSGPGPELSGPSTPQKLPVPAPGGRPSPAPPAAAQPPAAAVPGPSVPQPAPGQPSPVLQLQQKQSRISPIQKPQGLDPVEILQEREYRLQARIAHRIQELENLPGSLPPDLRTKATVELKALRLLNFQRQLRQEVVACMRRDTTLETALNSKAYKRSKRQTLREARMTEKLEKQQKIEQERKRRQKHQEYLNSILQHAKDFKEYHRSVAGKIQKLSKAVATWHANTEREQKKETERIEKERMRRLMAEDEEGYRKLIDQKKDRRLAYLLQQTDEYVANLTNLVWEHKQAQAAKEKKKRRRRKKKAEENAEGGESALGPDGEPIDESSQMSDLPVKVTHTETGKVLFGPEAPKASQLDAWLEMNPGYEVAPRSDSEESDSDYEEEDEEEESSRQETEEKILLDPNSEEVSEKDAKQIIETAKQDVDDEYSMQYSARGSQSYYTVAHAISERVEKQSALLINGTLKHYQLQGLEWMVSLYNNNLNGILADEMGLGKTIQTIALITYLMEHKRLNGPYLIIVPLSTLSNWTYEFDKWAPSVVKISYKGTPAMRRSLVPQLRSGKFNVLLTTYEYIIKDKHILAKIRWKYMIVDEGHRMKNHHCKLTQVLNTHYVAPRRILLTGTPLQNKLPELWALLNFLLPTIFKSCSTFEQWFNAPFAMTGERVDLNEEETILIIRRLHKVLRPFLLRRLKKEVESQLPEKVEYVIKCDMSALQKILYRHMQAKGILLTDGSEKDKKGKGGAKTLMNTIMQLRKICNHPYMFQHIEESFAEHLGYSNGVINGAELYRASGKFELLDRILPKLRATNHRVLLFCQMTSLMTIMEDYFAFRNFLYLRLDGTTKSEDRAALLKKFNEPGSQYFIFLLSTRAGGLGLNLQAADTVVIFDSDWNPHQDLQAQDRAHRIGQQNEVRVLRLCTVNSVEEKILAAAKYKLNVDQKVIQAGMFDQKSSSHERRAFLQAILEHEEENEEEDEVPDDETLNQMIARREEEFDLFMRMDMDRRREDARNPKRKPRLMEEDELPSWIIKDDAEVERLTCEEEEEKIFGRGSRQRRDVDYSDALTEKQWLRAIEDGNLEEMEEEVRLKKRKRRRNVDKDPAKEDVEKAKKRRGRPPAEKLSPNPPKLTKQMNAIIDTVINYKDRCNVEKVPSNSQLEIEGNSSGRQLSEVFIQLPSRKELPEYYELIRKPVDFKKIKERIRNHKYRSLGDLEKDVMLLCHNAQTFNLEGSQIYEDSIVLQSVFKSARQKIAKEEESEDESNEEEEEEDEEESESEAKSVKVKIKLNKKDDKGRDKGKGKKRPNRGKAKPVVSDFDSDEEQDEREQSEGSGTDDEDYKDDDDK

[5] = FL-SMARCA4 IC>50, Table 3c.2, ATPase assay, enzyme 5 nM, ATP 250 uM, chicken mononucleosome 10 nM, 30 min preincubation
[6] = Table 3d.1, read-out: FL-SMARCA2 IC>50

| Structure (SMILES) | IC50 [1] [nM] | IC50 [2] [nM] | IC50 [3, 5] [nM] | IC50 ([4]; Table 3c.1) [nM] | IC50 ([3]; FL-SMARCA4 IC50) [nM] | IC50 [4, 6] [nM] |
| --- | --- | --- | --- | --- | --- | --- |
| O=C(Nc1cc(F)c(=O)n(CC(F)F)c1)c1cc(C#CC2CCN(CC(F)(F)F)C2)c(Cl)s1 (centres unmarked) [Compound 110d] | > 10000 | > 10000 |  |  | 4610 | 1470 |
| Cc1nc2cc(C#Cc3cc(C(=O)Nc4cc(F)c(=O)n(CC(F)F)c4)sc3Cl)ccc2[nH]1 [Compound 141c] | > 10000 | 6020 | 59.8 | 28 |  |  |
| N#Cc1cc(C(=O)Nc2cc(C(N)=O)c(=O)n(CC(F)F)c2)sc1C(F)(F)F [Compound 137d] | > 10000 | > 10000 |  |  | > 50000 | > 50000 |
| CNC(=O)Cn1cc(C#Cc2cc(C(=O)Nc3cc(F)c(=O)n(CC(F)F)c3)sc2Cl)cn1 [Compound 121c] | > 10000 | > 10000 | 384 | 191 |  |  |
| O=C(Nc1cc(F)c(=O)n(CC(F)F)c1)c1cc(C#CCn2cccn2)c(Cl)s1 [Compound 123d] | > 10000 | > 10000 |  |  | 1580 | 520 |
| O=C(Nc1cc(F)c(=O)n(CC(F)F)c1)c1cc(C#Cc2cocn2)c(Cl)s1 [Compound 136c] | > 10000 | 734 | 117 | 26.3 |  |  |
| O=C(Nc1cc(F)c(=O)n(CC(F)F)c1)c1cc(C#Cc2cn3c(n2)CNCC3)c(Cl)s1 [Compound 147c] | > 10000 | > 10000 | 7960 | 5240 |  |  |
| CNS(=O)(=O)c1cccc(C#Cc2cc(C(=O)Nc3cc(F)c(=O)n(CC(F)F)c3)sc2Cl)c1 [Compound 99c] | > 10000 | 1700 | 80.1 | 40.6 |  |  |
| O=C1C[C@@H](C#Cc2cc(C(=O)Nc3cc(F)c(=O)n(CC(F)F)c3)sc2Cl)CCN1 [Compound 62d] | > 10000 | > 10000 |  |  | 57.1 | 22.5 |
| CC(=O)Nc1cc(C#Cc2cc(C(=O)Nc3cc(F)c(=O)n(CC(F)F)c3)sc2Cl)ccn1 [Compound 143c] | > 10000 | 458 | 8.17 | 6.08 |  |  |
| CC(N)CC#Cc1cc(C(=O)Nc2cc(F)c(=O)n(CC(F)F)c2)sc1Cl (centres unmarked) [Compound 139d] | > 10000 | > 10000 |  |  | 6700 | 3100 |
| COc1cccc(C#Cc2cc(C(=O)Nc3cc(F)c(=O)n(CC(F)F)c3)sc2Cl)c1 [Compound 42c] | > 10000 | 5080 | 477 | 203 |  |  |
| O=C1Cc2ccc(C#Cc3cc(C(=O)Nc4cc(F)c(=O)n(CC(F)F)c4)sc3Cl)cc2N1 [Compound 140c] | > 10000 | > 10000 | 63.3 | 34 |  |  |
| Cc1nnc(C#Cc2cc(C(=O)Nc3cc(F)c(=O)n(CC(F)F)c3)sc2Cl)[nH]1 [Compound 127c] | > 10000 | > 10000 |  | 352 |  |  |
| O=C(Nc1cc(F)c(=O)n(CC(F)F)c1)c1cc(C#Cc2ccnc(-c3ncco3)c2)c(Cl)s1 [Compound 150c] | > 10000 | 932 | 14.5 |  |  |  |

Continued, values first:

| IC50 [1] [nM] | IC50 [2] [nM] | IC50 [3, 5] [nM] | IC50 ([4]; Table 3c.1) [nM] | IC50 ([3]; FL-SMARCA4 IC50) [nM] | IC50 [4, 6] [nM] | Structure (SMILES) |
| --- | --- | --- | --- | --- | --- | --- |
| > 10000 | 2940 | 329 | 130 |  |  | N#Cc1ccc(C#Cc2cc(C(=O)Nc3cc(F)c(=O)n(CC(F)F)c3)sc2Cl)cc1 [Compound 43c] |
| > 10000 | 3810 |  |  | 498 | 165 | N#Cc1cncc(C#Cc2cc(C(=O)Nc3cc(F)c(=O)n(CC(F)F)c3)sc2Cl)c1 [Compound 64d] |
| > 10000 | > 10000 |  |  | 2390 | 465 | CC(F)(F)c1sc(C(=O)Nc2cc(F)c(=O)n(CC(F)F)c2)cc1C#N [Compound 83d] |
| > 10000 | > 10000 |  |  | 1540 | 572 | O=C(Nc1cc(F)c(=O)n(CC(F)F)c1)c1cc(C#CC2CCCN2)c(Cl)s1 (centres unmarked) [Compound 107d] |
| > 10000 | 1810 |  |  | 32.7 | 10.9 | O=C(Nc1cc(F)c(=O)n(CC(F)F)c1)c1cc(C#C[C@H]2C[C@H](O)C2)c(Cl)s1 [Compound 73d] |
| > 10000 | 3930 | 245 | 67.5 |  |  | CN(C)C(=O)c1cccc(C#Cc2cc(C(=O)Nc3cc(F)c(=O)n(CC(F)F)c3)sc2Cl)c1 [Compound 74c] |
| 2030 | 1190 | 379 | 132 |  |  | O=C(Nc1cc(F)c(=O)n(CC(F)F)c1)c1cc(C#Cc2ccncn2)c(Cl)s1 [Compound 59c] |
| > 10000 | 2830 | 259 | 99.5 |  |  | O=C(Nc1cc(F)c(=O)n(CC(F)F)c1)c1cc(C#Cc2cnccn2)c(Cl)s1 [Compound 40c] |
| > 10000 | 664 | 60.8 | 30.1 |  |  | O=C(Nc1cc(F)c(=O)n(CC(F)F)c1)c1cc(C#CC2CCOCC2)c(Cl)s1 [Compound 22c] |
| > 10000 | > 10000 |  |  | 5100 | 1700 | NCCOCC#Cc1cc(C(=O)Nc2cc(F)c(=O)n(CC(F)F)c2)sc1Cl [Compound 111d] |
| 2270 | 1960 |  |  | > 50000 | 22400 | N#Cc1cc(C(=O)Nc2cc([N+](=O)[O-])c(=O)n(CC(F)F)c2)sc1C(F)(F)F [Compound 117d] |
| > 10000 | 4010 | 957 | 235 |  |  | O=C(Nc1cc(F)c(=O)n(CC(F)F)c1)c1cc(C#Cc2csc(C(F)(F)F)n2)c(Cl)s1 [Compound 126c] |
| 9160 | 6250 | 385 | 260 |  |  | Cc1cnc(C#Cc2cc(C(=O)Nc3cc(F)c(=O)n(CC(F)F)c3)sc2Cl)s1 [Compound 70c] |
| > 10000 | 1920 | 166 | 45.2 |  |  | CCn1cc(C#Cc2cc(C(=O)Nc3cc(F)c(=O)n(CC(F)F)c3)sc2Cl)cn1 [Compound 54c] |
| 6950 | > 10000 | 439 | 211 |  |  | O=C1CCC(C#Cc2cc(C(=O)Nc3cc(F)c(=O)n(CC(F)F)c3)sc2Cl)CN1 (centres unmarked) [Compound 153c] |
| 3890 | 5130 | 823 | 211 |  |  | CN(C)Cc1cccc(C#Cc2cc(C(=O)Nc3cc(F)c(=O)n(CC(F)F)c3)sc2Cl)c1 [Compound 128c] |
